What all share (type): in vivo
Data set [1] concerns Two-Spotted Spider Mite (Tetranychus Urticae). Put plainly: Acaricidal effect on two-spotted spider mite (Test Example 3). The conditions noted are these: 500 ppm; kidney bean leaf disc with female adults sprayed; two days after the treatment; 25° C. The procedure: Acaricidal Effect on Two-Spotted Spider Mite (Tetranychus Urticae)
A leaf disc with a diameter of 2 cm was made of a kidney bean leaf, placed on wet filter paper, inoculated with female adult two-spotted spider mites, and then uniformly sprayed, on a turntable, with 50 ml of a liquid chemical prepared by diluting a preparation containing each compound listed in Tables 1 to 4 as an active ingredient to adjust the concentration to 500 ppm. After the spraying, the leaf disc was allowed to stand in a room thermostated at 25° C. Two days after the treatment with the preparation, the dead insects were counted and the acaricidal effect was judged according to the criterion shown in Test Example 1. The test was carried out with two replications of 10 insects.

For data set [2], the system named is Diamond Back Moth (Plutella xylostella). Nature of the data set: Insecticidal effect on diamond back moth (Test Example 1). The conditions noted are these: 500 ppm; Chinese cabbage seedling with eggs immersed about 30 seconds; six days after the immersion; 25° C. From the text: Insecticidal Effect on Diamond Back Moth (Plutella xylostella)
Adult diamond back moths were released and allowed to oviposit on a Chinese cabbage seedling. Two days after the release, the seedling having the eggs deposited thereon was immersed for about 30 seconds in a liquid chemical prepared by diluting a preparation containing each compound listed in Tables 1 to 4 as an active ingredient to adjust the concentration to 500 ppm. After air-dryness, it was allowed to stand in a room thermostatted at 25° C. Six days after the immersion, the hatched insects were counted. The mortality was calculated according to the following equation and the insecticidal effect was judged according to the criterion shown below. The test was carried out with triplicate groups of 10 insects.

Data set [3] has as its system Green Peach Aphid (Myzus Persicae). Nature of the data set: Insecticidal effect on green peach aphid (Test Example 4). As to conditions: 500 ppm; stems and leaves of Chinese cabbage sprayed; six days after the spraying; greenhouse. An excerpt:
Insecticidal Effect on Green Peach Aphid (Myzus Persicae)
A Chinese cabbage plant was planted in each of plastic pots with a diameter of 8 cm and a height of 8 cm, and green peach aphids were propagated on the plant. Then, the stems and leaves were sufficiently sprayed with a liquid chemical prepared by diluting a preparation containing each compound listed in Tables 1 to 4 as an active ingredient to adjust the concentration to 500 ppm. After air-drying, the pots were allowed to stand in a greenhouse. Six days after the spraying, green peach aphids parasitic on each Chinese cabbage plant were counted and the control efficacy was calculated, whereby the […] effect was judged according to the criterion shown below. Control efficacy (%)=100−[(T×Ca)/(Ta×C)]×100 • Ta: number of parasites before spraying in treated group, • T: number of parasites after spraying in treated group,
Ca: number of parasites before spraying in untreated group, • […]: number of parasites after spraying in untreated group. Criterion for Judgment: • A: control efficacy 100% • B: control efficacy 99 to 90% • C: control efficacy 89 to 80% • D: control efficacy 79 to 50%

Turning to `Cc1nn(C)cc1C(=O)Nc1ccc(C(C(F)(F)F)C(F)(F)F)cc1C(C)CC(C)C` (stereo not shown) [1-34], the “acaricidal effect (mortality rating)” value in data set [1] is recorded as “B or higher”.

For `CC(C)CC(C)c1cc(C(C(F)(F)F)C(F)(F)F)ccc1NC(=O)c1cnn(C)c1I` (stereo not shown) [1-56], the “insecticidal effect (mortality rating)” value in data set [2] is recorded as “B or higher”.

In the case of `COC(c1ccc(NC(=O)c2c(C)nn(C)c2C)c(C(C)CC(C)C)c1)(C(F)(F)F)C(F)(F)F` (stereo not shown) [Compound No. 1-108, N-{2-(1,3-dimethylbutyl)-4-[1-methoxy-2,2,2-trifluoro-1-(trifluoromethyl)ethyl]-phenyl}-1,3,5-trimethylpyrazole-4-carboxamide], in data set [2], the “insecticidal effect (mortality rating)” value is “B or higher”.

For the molecule `CCCC(C)c1cc(C(OC)(C(F)(F)F)C(F)(F)F)ccc1NC(=O)c1c(C)nn(C)c1C` (stereo not shown) [1-26], the “insecticidal effect (mortality rating)” value in data set [2] was “B or higher”. Moreover, the “acaricidal effect (mortality rating)” value in data set [1] is “B or higher”.

With `Cc1noc(C)c1C(=O)Nc1ccc(C(C(F)(F)F)C(F)(F)F)cc1C(C)CC(C)C` (stereo not shown) [3-34], the control efficacy rating entry in data set [3] was “B or higher”.

As to `CCOC(c1ccc(NC(=O)c2c(C)nn(C)c2Cl)c(C(C)CC(C)C)c1)(C(F)(F)F)C(F)(F)F` (stereo not shown) [1-73], in data set [2], the “insecticidal effect (mortality rating)” value is reported as “B or higher”.

Turning to `Cc1nn(C)c(C)c1C(=O)Nc1ccc(C(C(F)(F)F)C(F)(F)F)c(C)c1C` [1-164], the “insecticidal effect (mortality rating)” value in data set [2] was “B or higher”.

Consider `Cc1nn(C)c(Br)c1C(=O)Nc1ccc(C(C(F)(F)F)C(F)(F)F)cc1C(C)CC(C)C` (stereo not shown) [1-81], for which, in data set [3], the control efficacy rating entry is on record as “B or higher”. For the same molecule, in data set [1], the “acaricidal effect (mortality rating)” value is listed as “B or higher”.

Consider `CC(C)CC(C)c1cc(C(C(F)(F)F)C(F)(F)F)ccc1NC(=O)c1cn(C)nc1Br` (stereo not shown) [1-39], for which the “acaricidal effect (mortality rating)” value in data set [1] is on record as “B or higher”.

As for `Cc1nn(C)c(I)c1C(=O)Nc1ccc(C(C(F)(F)F)C(F)(F)F)cc1C(C)CC(C)C` (stereo not shown) [1-87], the control efficacy rating entry in data set [3] is “B or higher”.

Turning to `Cc1coc(C)c1C(=O)Nc1ccc(C(C(F)(F)F)C(F)(F)F)cc1C(C)CC(C)C` (stereo not shown) [3-13], the control efficacy rating entry in data set [3] is listed as “B or higher”. In addition, in data set [1], the “acaricidal effect (mortality rating)” value is on record as “B or higher”.

Take `CCCc1cc(C(C(F)(F)F)C(F)(F)F)ccc1NC(=O)c1c(C)nn(C)c1Cl` [1-4]: the “insecticidal effect (mortality rating)” value in data set [2] is recorded as “B or higher”. In addition, the control efficacy rating result in data set [3] is “B or higher”.

For the molecule `CC(C)CC(C)c1cc(C(C(F)(F)F)C(F)(F)F)ccc1NC(=O)c1cn(C(F)F)nc1C(F)(F)F` (stereo not shown) [1-33], the “insecticidal effect (mortality rating)” value in data set [2] is “B or higher”.

For `CCCn1nc(C)c(C(=O)Nc2ccc(C(C(F)(F)F)C(F)(F)F)cc2C(C)CC(C)C)c1C` (stereo not shown) [1-119], the “acaricidal effect (mortality rating)” value in data set [1] was “B or higher”.

On to `Cc1nn(C)c(C(=O)Nc2ccc(C(C(F)(F)F)C(F)(F)F)cc2C(C)CC(C)C)c1Br` (stereo not shown) [4-5], for which, in data set [2], the “insecticidal effect (mortality rating)” value is listed as “B or higher”.

On to `CC(C)CC(C)c1cc(C(C(F)(F)F)C(F)(F)F)ccc1NC(=O)c1cccnc1Cl` (stereo not shown) [3-4], for which the “insecticidal effect (mortality rating)” value in data set [2] is on record as “B or higher”.

For `CCn1ncc(C(=O)Nc2ccc(C(C(F)(F)F)C(F)(F)F)cc2C(C)CC(C)C)c1I` (stereo not shown) [1-57], in data set [2], the “insecticidal effect (mortality rating)” value was “B or higher”.

Take `CC(C)CC(C)c1cc(C(C(F)(F)F)C(F)(F)F)ccc1NC(=O)c1cnn(C)c1S(C)(=O)=O` (stereo not shown) [1-48]: in data set [2], the “insecticidal effect (mortality rating)” value is “B or higher”.

Turning to `CCn1nc(C)c(C(=O)Nc2ccc(C(C(F)(F)F)C(F)(F)F)cc2C(C)CC(C)C)c1Cl` (stereo not shown) [1-78], the “acaricidal effect (mortality rating)” value in data set [1] was “B or higher”.

Consider `COC(c1ccc(NC(=O)c2c(C)nn(C)c2Br)c(C(C)CC(C)C)c1)(C(F)(F)F)C(F)(F)F` (stereo not shown) [1-82], for which, in data set [2], the “insecticidal effect (mortality rating)” value was “B or higher”. Moreover, the “acaricidal effect (mortality rating)” value in data set [1] is on record as “B or higher”.

For the molecule `Cc1nn(C)c(Cl)c1C(=O)Nc1ccc(C(F)(C(F)(F)F)C(F)(F)F)cc1C(C)CCC(C)C` (stereo not shown) [1-145], the “insecticidal effect (mortality rating)” value in data set [2] is recorded as “B or higher”.

With `CC(C)CC(C)c1cc(C(C(F)(F)F)C(F)(F)F)ccc1NC(=O)c1cn(C)nc1I` (stereo not shown) [1-40], the “acaricidal effect (mortality rating)” value in data set [1] is reported as “B or higher”.

For the molecule `CC(C)CC(C)c1cc(C(F)(C(F)(F)F)C(F)(F)F)ccc1NC(=O)c1cn(C)nc1C(F)(F)F` (stereo not shown) [1-28], the “insecticidal effect (mortality rating)” value in data set [2] is listed as “B or higher”.

As to `Cc1nn(C)c(Cl)c1C(=O)Nc1ccc(C(C(F)(F)F)C(F)(F)F)cc1-c1ccccc1` [1-20], the “insecticidal effect (mortality rating)” value in data set [2] was “B or higher”.

For `Cc1nn(C)c(C)c1C(=O)Nc1ccc(C(F)(C(F)(F)F)C(F)(F)F)c(C)c1C` [1-163], in data set [2], the “insecticidal effect (mortality rating)” value was “B or higher”.

`CC(C)CC(C)c1cc(C(C(F)(F)F)C(F)(F)F)ccc1NC(=O)c1cnccc1C(F)(F)F` (stereo not shown) [3-3]: in data set [2], the “insecticidal effect (mortality rating)” value is “B or higher”.

As to `CC(C)CC(C)c1cc(C(C(F)(F)F)C(F)(F)F)ccc1NC(=O)c1ncc(Cl)cc1Cl` (stereo not shown) [3-2], the “insecticidal effect (mortality rating)” value in data set [2] was “B or higher”.

Take `Cc1nn(C)c(Cl)c1C(=O)Nc1ccc(C(C(F)(F)F)C(F)(F)F)c2c1CCCC2` [Compound No. 1-14]: in data set [2], the “insecticidal effect (mortality rating)” value is reported as “B or higher”.

Regarding `Cc1nn(C)c(Cl)c1C(=O)Nc1ccc(C(F)(C(F)(F)F)C(F)(F)F)cc1C(C)C(C)C` (stereo not shown) [1-21], the “insecticidal effect (mortality rating)” value in data set [2] is reported as “B or higher”.

For `CSc1nn(C)cc1C(=O)Nc1ccc(C(C(F)(F)F)C(F)(F)F)cc1C(C)CC(C)C` (stereo not shown) [1-41], the “insecticidal effect (mortality rating)” value in data set [2] is “B or higher”. Further, the control efficacy rating result in data set [3] is listed as “B or higher”.

For the molecule `CCC(C)c1cc(C(C(F)(F)F)C(F)(F)F)ccc1NC(=O)c1c(C)nn(C)c1Cl` (stereo not shown) [1-8], in data set [3], the control efficacy rating result is “B or higher”.

For `Cc1nn(C)c(C(=O)Nc2ccc(C(C(F)(F)F)C(F)(F)F)cc2C(C)CC(C)C)c1Cl` (stereo not shown) [4-4], the “insecticidal effect (mortality rating)” value in data set [2] is “B or higher”.

Regarding `CCCCC(C)c1cc(C(C(F)(F)F)C(F)(F)F)ccc1NC(=O)c1c(C)nn(C)c1Cl` (stereo not shown) [1-143], in data set [2], the “insecticidal effect (mortality rating)” value was “B or higher”. The “acaricidal effect (mortality rating)” value in data set [1] is given as “B or higher”.

Regarding `CC(C)CC(C)c1cc(C(C(F)(F)F)C(F)(F)F)ccc1NC(=O)c1cscc1Br` (stereo not shown) [3-21], the “acaricidal effect (mortality rating)” value in data set [1] was “B or higher”.

For the molecule `COC(c1ccc(NC(=O)c2c(C(F)(F)F)nn(C)c2Cl)c(C(C)CC(C)C)c1)(C(F)(F)F)C(F)(F)F` (stereo not shown) [1-104], the “acaricidal effect (mortality rating)” value in data set [1] is “B or higher”.

As to `CCn1ncc(C(=O)Nc2ccc(C(C(F)(F)F)C(F)(F)F)cc2C(C)CC(C)C)c1Cl` (stereo not shown) [1-51], in data set [1], the “acaricidal effect (mortality rating)” value is recorded as “B or higher”.

As for `Cc1nn(C)c(Cl)c1C(=O)Nc1ccc(C(C(F)(F)F)C(F)(F)F)cc1C(C)(C)C` [Compound No. 1-10], the “insecticidal effect (mortality rating)” value in data set [2] is given as “B or higher”.

Turning to `Cc1nn(C)c(Cl)c1C(=O)Nc1ccc(C(F)(C(F)(F)F)C(F)(F)F)cc1C(C)CC(C)C` (stereo not shown) [1-70], in data set [2], the “insecticidal effect (mortality rating)” value was “B or higher”.

As for `Cc1nnsc1C(=O)Nc1ccc(C(F)(C(F)(F)F)C(F)(F)F)cc1C(C)CC(C)C` (stereo not shown) [3-10], the “insecticidal effect (mortality rating)” value in data set [2] is “B or higher”.

On to `CC(C)CC(C)c1cc(C(C(F)(F)F)C(F)(F)F)ccc1NC(=O)c1cccs1` (stereo not shown) [3-27], for which, in data set [3], the control efficacy rating entry is “B or higher”.

As to `CCc1nn(C)cc1C(=O)Nc1ccc(C(C(F)(F)F)C(F)(F)F)cc1C(C)CC(C)C` (stereo not shown) [1-35], the “insecticidal effect (mortality rating)” value in data set [2] is “B or higher”. Further, the control efficacy rating entry in data set [3] was “B or higher”.

In the case of `Cc1nn(C)c(Cl)c1C(=O)Nc1ccc(C(C(F)(F)F)C(F)(F)F)c2ccccc12` [1-17], in data set [2], the “insecticidal effect (mortality rating)” value is on record as “B or higher”.

`CCc1nn(C)c(Cl)c1C(=O)Nc1ccc(C(C(F)(F)F)C(F)(F)F)cc1C(C)CC(C)C` (stereo not shown) [1-132]: the “insecticidal effect (mortality rating)” value in data set [2] was “B or higher”. Besides, the “acaricidal effect (mortality rating)” value in data set [1] was “B or higher”.

Consider `Cc1nn(C)c(C)c1C(=O)Nc1ccc(C(C(F)(F)F)C(F)(F)F)cc1C(C)CC(C)C` (stereo not shown) [1-107], for which the “insecticidal effect (mortality rating)” value in data set [2] is “B or higher”.

`CCCC(C)c1cc(C(C(F)(F)F)C(F)(F)F)ccc1NC(=O)c1c(C)nn(C)c1Cl` (stereo not shown) [1-22]: the “acaricidal effect (mortality rating)” value in data set [1] was “B or higher”.

Consider `CCCC(C)c1cc(C(C(F)(F)F)C(F)(F)F)ccc1NC(=O)c1c(C)nn(C)c1C` (stereo not shown) [1-25], for which the control efficacy rating entry in data set [3] is “B or higher”. Besides, in data set [1], the “acaricidal effect (mortality rating)” value was “B or higher”.

On to `Cc1c(Cl)c(C(=O)Nc2ccc(C(C(F)(F)F)C(F)(F)F)cc2C(C)CC(C)C)nn1C` (stereo not shown) [4-1], for which the “insecticidal effect (mortality rating)” value in data set [2] is on record as “B or higher”. In data set [3], the control efficacy rating result is recorded as “B or higher”.
